Each structure is given as a SMILES string.

In experiment [1] the target is T1, fatty-acid amide hydrolase (FAAH) (Homo sapiens, UniProt O00519).
T1 sequence (O00519 1-579): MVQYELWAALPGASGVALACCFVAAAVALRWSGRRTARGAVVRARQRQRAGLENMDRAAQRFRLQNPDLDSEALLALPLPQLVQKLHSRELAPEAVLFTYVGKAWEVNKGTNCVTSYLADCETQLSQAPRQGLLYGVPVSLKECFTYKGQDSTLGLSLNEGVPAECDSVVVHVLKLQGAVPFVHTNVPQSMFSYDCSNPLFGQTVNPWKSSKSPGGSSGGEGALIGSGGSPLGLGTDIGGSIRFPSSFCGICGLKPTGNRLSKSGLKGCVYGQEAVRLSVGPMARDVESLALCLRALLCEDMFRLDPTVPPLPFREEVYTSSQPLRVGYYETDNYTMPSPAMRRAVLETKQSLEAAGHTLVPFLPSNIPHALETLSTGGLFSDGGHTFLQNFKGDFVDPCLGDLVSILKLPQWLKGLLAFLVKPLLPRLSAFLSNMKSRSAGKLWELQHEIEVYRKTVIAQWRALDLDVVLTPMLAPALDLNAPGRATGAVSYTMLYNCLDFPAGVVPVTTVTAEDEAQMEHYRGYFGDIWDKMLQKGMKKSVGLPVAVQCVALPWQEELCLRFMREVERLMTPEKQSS
The experiment in a line: FAAH inhibitor screening assay kit (Cayman […]), dose-response […]. The format is biochemical.

Experiment [2] deals with T1, fatty-acid amide hydrolase (FAAH). As to the kind of experiment: FAAH inhibitor screening assay kit (Cayman […]), percent inhibition at […]. The format is biochemical.

Usually IC50 stands for the concentration that inhibits the measured activity by half. A higher IC50 goes with lower potency. In turn, `O=c1c(O)c(-c2ccc(O)cc2)oc2cc(O)cc(O)c12` [kaempferol] returned an IC50 in experiment [1] of 1.06 µM.

The inhibition is how much of the control response was suppressed. On to `O=C(Oc1ccc([N+](=O)[O-])cc1)N1CCN(Cc2cccc(Oc3ccccc3)c2)CC1` [JZL195], for which testing at 10 µM in experiment [2] gave an inhibition of 88 ± 1.26%.

Values taken from publication PMC7587337, “Kaempferol Facilitated Extinction Learning in Contextual Fear Conditioned Rats via Inhibition of Fatty-Acid Amide Hydrolase” (Molecules, 2020).
